Converted amounts (≈) assume the structure as drawn. The source made the active and inactive calls. No cut-off for these calls is given here.
Key:
Staphylococcus aureus [1] = test: In vitro antibacterial activity against Staphylococcus aureus assessed as growth inhibition after 17 hrs by serial two-fold dilution technique; assay type: functional
Staphylococcus aureus [2] = test: In vitro antibacterial activity against benzylpenicillin-resistant Staphylococcus aureus assessed as growth inhibition after 17 hrs by serial two-fold dilution technique; assay type: functional
[3] = system: Staphylococcus epidermidis; test: In vitro antibacterial activity against benzylpenicillin-resistant Staphylococcus epidermidis assessed as growth inhibition after 17 hrs by serial two-fold dilution technique; assay type: functional
[4] = system: Streptococcus pasteurianus; test: In vitro antibacterial activity against Streptococcus pasteurianus assessed as growth inhibition after 17 hrs by serial two-fold dilution technique; assay type: functional
Streptococcus pyogenes [5] = test: In vitro antibacterial activity against Streptococcus pyogenes assessed as growth inhibition after 17 hrs by serial two-fold dilution technique; assay type: functional
Escherichia coli [6] = test: In vitro antibacterial activity against Escherichia coli assessed as growth inhibition after 17 hrs by serial two-fold dilution technique; assay type: functional
Klebsiella pneumoniae = test: In vitro antibacterial activity against Klebsiella pneumoniae assessed as growth inhibition after 17 hrs by serial two-fold dilution technique; assay type: functional
Proteus mirabilis = test: In vitro antibacterial activity against Proteus mirabilis assessed as growth inhibition after 17 hrs by serial two-fold dilution technique; assay type: functional
Salmonella [7] = test: In vitro antibacterial activity against Salmonella schottmuelleri assessed as growth inhibition after 17 hrs by serial two-fold dilution technique; assay type: functional
Streptococcus pyogenes [8] = test: In vivo antibacterial activity against Streptococcus pyogenes infected in po dosed albino CD-1 mouse assessed as protection against bacterial infection by measuring host survival administered at 1 hr and 4 hrs after infection; assay type: functional
Streptococcus pyogenes [9] = test: In vivo antibacterial activity against Streptococcus pyogenes infected in sc dosed albino CD-1 mouse assessed as protection against bacterial infection by measuring host survival administered at 1 hr and 4 hrs after infection; assay type: functional
[10] = system: Streptococcus pasteurianus; test: In vivo antibacterial activity against Streptococcus pasteurianus infected in sc dosed albino CD-1 mouse assessed as protection against bacterial infection by measuring host survival administered at 1 hr and 4 hrs after infection; assay type: functional
Salmonella [11] = test: In vivo antibacterial activity against Salmonella schottmuelleri infected in sc dosed albino CD-1 mouse assessed as protection against bacterial infection by measuring host survival administered at 1 hr and 4 hrs after infection; assay type: functional
Streptococcus pneumoniae = test: In vitro antibacterial activity against Streptococcus pneumoniae assessed as growth inhibition after 17 hrs by serial two-fold dilution technique; assay type: functional
Escherichia coli [12] = test: In vivo antibacterial activity against Escherichia coli infected in sc dosed albino CD-1 mouse assessed as protection against bacterial infection by measuring host survival administered at 1 hr and 4 hrs after infection; assay type: functional
Klebsiella aerogenes = test: In vitro antibacterial activity against cephalosporins-resistant Enterobacter aerogenes assessed as growth inhibition after 17 hrs by serial two-fold dilution technique; assay type: functional, organism-based
Enterobacter cloacae = test: In vitro antibacterial activity against cephalosporins-resistant Enterobacter cloacae assessed as growth inhibition after 17 hrs by serial two-fold dilution technique; assay type: functional, organism-based
Proteus vulgaris = test: In vitro antibacterial activity against cephalosporins-resistant Proteus vulgaris assessed as growth inhibition after 17 hrs by serial two-fold dilution technique; assay type: functional, organism-based
Providencia stuartii = test: In vitro antibacterial activity against cephalosporins-resistant Providencia stuartii assessed as growth inhibition after 17 hrs by serial two-fold dilution technique; assay type: functional, organism-based
Pseudomonas aeruginosa = test: In vitro antibacterial activity against cephalosporins-resistant Pseudomonas aeruginosa assessed as growth inhibition after 17 hrs by serial two-fold dilution technique; assay type: functional, organism-based
Serratia marcescens = test: In vitro antibacterial activity against cephalosporins-resistant Serratia marcescens assessed as growth inhibition after 17 hrs by serial two-fold dilution technique; assay type: functional, organism-based

| SMILES | MIC (Staphylococcus aureus [1]) | MIC (Staphylococcus aureus [2]) | MIC [3] | MIC [4] | MIC (Streptococcus pyogenes [5]) | MIC (Escherichia coli [6]) | MIC (Klebsiella pneumoniae) | MIC (Proteus mirabilis) | MIC (Salmonella [7]) | ED50 (Streptococcus pyogenes [8]) | ED50 (Streptococcus pyogenes [9]) | ED50 [10] | ED50 (Salmonella [11]) | MIC (Streptococcus pneumoniae) | ED50 (Escherichia coli [12]) | growth inhibition (GI) (Klebsiella aerogenes) | growth inhibition (GI) (Enterobacter cloacae) | growth inhibition (GI) (Proteus vulgaris) | growth inhibition (GI) (Providencia stuartii) | growth inhibition (GI) (Pseudomonas aeruginosa) | other results |
| --- | --- | --- | --- | --- | --- | --- | --- | --- | --- | --- | --- | --- | --- | --- | --- | --- | --- | --- | --- | --- | --- |
| CC1=C(C(=O)O)N2C(=O)[C@@H](NC(=O)[C@H](N)c3ccccc3)[C@H]2SC1 [CEPHALEXIN ANHYDROUS] | 1.6 µg/mL (≈ 4.61 µM) | 6.2 µg/mL (≈ 17.8 µM) | 12.5 µg/mL (≈ 36 µM) | 1.6 µg/mL (≈ 4.61 µM) | 0.8 µg/mL (≈ 2.3 µM) | 6.2 µg/mL (≈ 17.8 µM) | 3.1 µg/mL (≈ 8.92 µM) | 25 µg/mL (≈ 72 µM) | 6.2 µg/mL (≈ 17.8 µM) | 1.2 mg/kg | 3.4 mg/kg | 38.7 mg/kg | 8.2 mg/kg | > 100 µg/mL | 5.6 mg/kg |  |  |  |  |  |  |
| N[C@@H](C(=O)N[C@@H]1C(=O)N2C(C(=O)O)=C(Cn3ccc(=O)cc3)CS[C@H]12)c1ccccc1 | 3.1 µg/mL (≈ 7.04 µM) | 50 µg/mL (≈ 114 µM) | 25 µg/mL (≈ 56.8 µM) | 0.4 µg/mL (≈ 0.908 µM) | 1.6 µg/mL (≈ 3.63 µM) | 12.5 µg/mL (≈ 28.4 µM) | 12.5 µg/mL (≈ 28.4 µM) | 50 µg/mL (≈ 114 µM) | 12.5 µg/mL (≈ 28.4 µM) | > 8 mg/kg | > 0.5 mg/kg |  | 5 mg/kg | 100 µg/mL (≈ 227 µM) | 4.6 mg/kg | inactive | inactive | inactive | inactive | inactive | growth inhibition (GI) (Serratia marcescens): inactive |
| N[C@@H](C(=O)N[C@@H]1C(=O)N2C(C(=O)O)=C(Cn3ccccc3=O)CS[C@H]12)c1ccccc1 | 1.6 µg/mL (≈ 3.63 µM) | 6.2 µg/mL (≈ 14.1 µM) | 6.2 µg/mL (≈ 14.1 µM) | 0.2 µg/mL (≈ 0.454 µM) | 0.8 µg/mL (≈ 1.82 µM) | 25 µg/mL (≈ 56.8 µM) | 6.2 µg/mL (≈ 14.1 µM) | > 100 µg/mL | 12.5 µg/mL (≈ 28.4 µM) | > 8 mg/kg | > 0.5 mg/kg | 14 mg/kg | 10 mg/kg | 50 µg/mL (≈ 114 µM) | 8.4 mg/kg | inactive | inactive | inactive | inactive | inactive | growth inhibition (GI) (Serratia marcescens): inactive |
